Experimental data as given in US10238670B2, “9-aminomethyl minocycline compounds and methods of use thereof in urinary tract infection (UTI) treatment” (Paratek Pharmaceuticals, Inc., priority 2016, dated 2019).

Key:
plasma proteins = assay: In vitro plasma protein binding (ultrafiltration), rat plasma; assay type: in vitro ADME, rat (HanWistar); details: 10-10,000 ng/mL
Protocol: (§1) For human binding studies, plasma was obtained from the blood of three healthy male volunteers. Plasma was defrosted from storage at -20° C. before use, and pools of human plasma were used for all studies. Plasma from mouse, rat, and monkey was supplied by Harlan Laboratories Ltd. (Netherlands), Milan […], Switzerland) and Centre de Primatologie ULP (France), respectively. Protein binding was measured using an ultrafiltration method. To asses the suitability of ultrafiltration, the recovery and free permeation of [^14C]-labelled Compound 1 in PBS buffer were investigated. […] Three 1 mL aliquots per concentration were introduced into […]® devices and spun for 1 min at 2000 g (filtrate ≤500 μL). Samples of the spiked solutions, the filtrate and retentate were quantified by LSC; volumes were determined by weighing. The free permeation of the test compound in PBS was evaluated as follows: Ratio=[Cuf/Cr] with Cuf being the concentration in the ultrafiltrate (ng/mL) and Cr the concentration in the retentate (ng/mL). […] Specifically, concentrations of Compound 1 was determined by an UPLC-MS/MS method. […] The ions monitored for Compound 1 was the parent [M+H]^+ ion at m/z 557.3.0; the product ions at m/z 453.4. […] The quantification was performed using Analyst software and Watson LIMS version 7.2.0.01. […] The lower limit of quantitation was 5.0 ng/mL for Compound 1.

[1] = as above; assay type: in vitro ADME, rat (HanWistar); details: HanWistar, 10-10,000 ng/mL, mean±SD, read-out: mean unbound protein fraction (fu) in plasma
Protocol: as §1

human plasma protein = details: cited from earlier work

SMILES	Mean (SD) Bound Fraction (plasma proteins)	fraction unbound [1]	type of plasma protein binding (human plasma protein; binding increases with increasing drug concentrations)	human plasma protein binding, Mean (human plasma protein; literature)
CN(C)c1cc(CNCC(C)(C)C)c(O)c2c1C[C@H]1C[C@H]3[C@H](N(C)C)C(O)=C(C(N)=O)C(=O)[C@@]3(O)C(O)=C1C2=O [Compound 1, 9-[(2,2-dimethyl-propylamino)-methyl]-minocycline]	26.1 (12.3) %	0.739 ± 0.121		
CN(C)c1cc(NC(=O)CNC(C)(C)C)c(O)c2c1C[C@H]1C[C@H]3[C@H](N(C)C)C(O)=C(C(N)=O)C(=O)[C@@]3(O)C(O)=C1C2=O [Tigecycline]			atypical, non-linear protein binding	71-87%
